The test system of data set [1] is MCF7. Briefly: Antitumor activity against human MCF7 cells xenografted in chicken embryo chorioallantoic membrane assessed as reduction in tumor size. The class given is functional, cell-based. As to conditions: dose 1.5-4.5 µM. In general terms: In xenograft studies the graft and the host belong to different species.
Data set [2] has as its system Mitochondrial membrane. Description: Disruption of mitochondrial membrane potential in human MCF7 cells assessed as translocation of cytochrome c to cytoplasm at IC50 incubated for 48 hrs by confocal microscopic analysis. The class given is cell membranes.
Data set [3] concerns MCF7. Description: Inhibition of cell adhesion in human MCF7 cells assessed as reduction in cell aggregates formation at IC50 incubated for 48 hrs by inverted phase contrast microscopic analysis. The class given is functional, cell-based.
For data set [4], the system named is Mitochondrial membrane. Briefly: Disruption of mitochondrial membrane integrity in human A549 cells assessed as mitochondrial swelling by TEM analysis. The format is cell membranes.
The subject of data set [5] is Mitochondrial membrane. Description: Disruption of mitochondrial membrane integrity in human A549 cells assessed as disruption of normal mitochondrial distribution by TEM analysis. The format is cell membranes.
For data set [6], the system named is Mitochondrial membrane. Briefly: Disruption of mitochondrial membrane integrity in human A549 cells assessed as absence of well-developed cristae by TEM analysis. The class given is cell membranes.
Data set [7] deals with Mitochondrial membrane. Description: Disruption of mitochondrial membrane integrity in human A549 cells assessed as change in mitochondrial size by TEM analysis. The format is cell membranes.
The subject of data set [8] is MCF7. Briefly: Induction of cell cycle arrest in human MCF7 cells assessed as accumulation of cells at G2 phase at IC50 incubated for 24 hrs by PI staining based flow cytometric analysis relative to control. The class given is functional. A general note: Flow cytometry measures light scatter and fluorescence of single cells or particles in a stream.
Data set [9] relates to Mitochondrial membrane. Briefly: Disruption of mitochondrial membrane potential in human A549 cells assessed as translocation of cytochrome c to cytoplasm at IC50 incubated for 48 hrs by confocal microscopic analysis. The format is cell membranes.
Data set [10] deals with Mitochondrial membrane. Briefly: Induction of mitochondrial membrane depolarization in human A549 cells assessed as increase in mitochondrial fission by measuring appearance of shortened mitochondria by confocal microscopic analysis. The class given is cell membranes.
A short description of data set [11]: Cytotoxicity against human MRC5 cells assessed as inhibition of cell proliferation incubated for 72 hrs by MTT assay. The format is toxicity, cell-based. On the technique in general: Formazan colour is commonly taken as a measure of viable cells.
Data set [12] deals with Mitochondrial membrane. Briefly: Induction of mitochondrial membrane depolarization in human MCF7 cells assessed as increase in mitochondrial fission by measuring appearance of spherical mitochondria by confocal microscopic analysis. The format is cell membranes.
The test system of data set [13] is Mitochondrial membrane. Description: Induction of mitochondrial membrane depolarization in human MCF7 cells assessed as increase in mitochondrial fission by measuring appearance of shortened mitochondria by confocal microscopic analysis. The class given is cell membranes.
Data set [14] relates to MCF7. Description: Antitumor activity against human MCF7 cells xenografted in chicken embryo chorioallantoic membrane assessed as change in nuclear morphology at 1.5 to 4.5 uM by H and E staining based analysis. The class given is functional, cell-based. As to conditions: dose 1.5-4.5 µM.
Data set [15] concerns MCF7. Description: Induction of cell cycle arrest in human MCF7 cells assessed as accumulation of cells at S phase at IC50 incubated for 48 hrs by PI staining based flow cytometric analysis. The format is functional.
Data set [16] relates to Mitochondrial membrane. Briefly: Disruption of mitochondrial membrane integrity in human MCF7 cells assessed as change in mitochondrial size by TEM analysis. The format is cell membranes.
The subject of data set [17] is MCF7. Briefly: Induction of DNA damage in human MCF7 cells assessed as gammaH2AX positive cells at IC50 incubated for 48 hrs by PI staining based flow cytometric analysis (reference value: 7.58 +/- 1.23%). The format is functional.
A further data set deals with A549. Description: Induction of cell cycle arrest in human A549 cells assessed as accumulation of cells at G1 phase at IC50 incubated for 24 hrs by PI staining based flow cytometric analysis (reference value: 37.40 +/- 2.40%). The class given is functional.
For data set [18], the system named is Mitochondrial membrane. Briefly: Disruption of mitochondrial membrane integrity in human MCF7 cells assessed as change in mitochondrial shape by TEM analysis. The class given is cell membranes.

Calls of active or inactive are those of the source. The rule behind the calls is not given here. Bounds are passed on as bounds.

Regarding `CC(=S)NC1CCc2[nH]c3ccc(Br)cc3c2C1` (centres undefined), the Activity entry was “Dose-Dependent Effect” in the data set on MCF7 [1], 25.95% in the data set on MCF7 [8], 16.78% with MCF7 [17] and 31.6% in the data set with A549. Besides, the outcome in the data set with Mitochondrial membrane [2], with Mitochondrial membrane [4], in the data set with Mitochondrial membrane [5], in the data set with Mitochondrial membrane [6], in the data set on Mitochondrial membrane [7] and in the data set with Mitochondrial membrane [9] was Active. Besides, the result in the data set with Mitochondrial membrane [10], with Mitochondrial membrane [12], in the data set with Mitochondrial membrane [13], with MCF7 [14], in the data set with MCF7 [15] and with Mitochondrial membrane [16] was Active. Moreover, in the data set on Mitochondrial membrane [18], the outcome was Active. Further, the inhibition result in the data set on MCF7 [3] is “Active”. In data set [11], the IC50 (usually the concentration that gives 50% inhibition) at 72 h was > 50 µM.

These data come from ChEMBL document CHEMBL6071148, “Synthesis and biological evaluation of novel 3,6- amide and thioamide substituted- 2,3,4,9-tetrahydro-1H-carbazoles for anti-cancer activity” (Eur J Med Chem, 2024).
